# Source: PMC7918049, “Juncaceae Species as Promising Sources of Phenanthrenes: Antiproliferative Compounds from Juncus maritimus Lam” (Molecules, 2021)
# Like-named read-outs stand apart in the source and are kept apart here.
# Columns and labels:
# [1] = tested on: HeLa human cervix carcinoma cells; test: MTT antiproliferative assay, HeLa; type: cell-based; details: 72 h, mean of four parallel experiments, read-out: IC50 (µM) ± SD HeLa
# Method: (§1) Breast cancer cell line MCF-7 (ATCC®® HTB-22) and the drug-resistant subline of the human breast cancer MCF-7 (ECACC 86012803; KCR) were purchased from LGC Promochem (Teddington, UK). Both cell lines were cultured in Eagle’s Minimal Essential Medium (EMEM, containing 4.5 g/L glucose) supplemented with a non-essential amino acid mixture, a selection of vitamins, and 10% heat-inactivated fetal bovine serum. In every third passage, 0.56 µg/mL doxorubicin was added to the medium in order to maintain the ABCB1 (P-glycoprotein) expression in KCR cells. A2780 human ovarian cancer cell line (ECACC European Collection of Authentical Cell Culture, Sigma Cat. no. 93112519) and the cisplatin-resistant human ovarian cancer cell line A2780cis (ECACC European Collection of Authentical Cell Culture, Sigma Cat. no. 93112517) were purchased from Merck KGaA (Darmstadt, Germany). The human ovarian cancer cell lines were cultured in RPMI 1640 medium supplemented with 10% heat-inactivated fetal bovine serum. The RPMI 1640 medium of the cisplatin-resistant cell line A2780 was supplemented with 1 µM cisplatin. HeLa (ATCC® CCL-2™) human cervix carcinoma, HTB-26 breast adenocarcinoma, T-47D (ATCC® HTB-133™) ductal carcinoma, and MRC-5 human embryonal lung fibroblast cell lines (ATCC® CCL-171) were purchased from LGC Promochem (Teddington, UK). The cells were cultured in Eagle’s Minimal Essential Medium (EMEM, containing 4.5 g/L glucose) supplemented with a non-essential amino acid mixture, a selection of vitamins, and 10% heat-inactivated fetal bovine serum. HTB-26 cell line was cultured in RPMI 1640 medium supplemented with 10% heat-inactivated fetal bovine serum. T-47D cells were cultured in RPMI 1640 medium supplemented with 10% heat-inactivated fetal bovine serum, 2 mM L-glutamine, 1 mM Na-pyruvate, and 100 mM Hepes. All of the cells were incubated at 37 °C, in a 5% CO2, 95% air atmosphere.
# (§2) The antiproliferative effect of the compounds was determined on the human breast (MCF-7, KCR, T-47D, HTB-26), cervical (HeLa), and ovarian (A2780, A2780cis) cancer cells, and on MRC-5 (human embryonic lung fibroblast) cell line. The adherent cells were cultured in 96-well flat-bottomed microtiter plates, using EMEM supplemented with 10% heat-inactivated fetal bovine serum or RPMI 1640 supplemented with 10% heat-inactivated fetal bovine serum, respectively. The density of the cells was adjusted to 6 × 10^3 cells in 100 μL per well, the cells were seeded for 24 h at 37 °C, 5% CO2, then the medium was removed from the plates and fresh medium (100 μL per well) was added to the cells. The effects of increasing concentrations of compounds on cell proliferation were tested in 96-well flat-bottomed microtiter plates. The compounds were diluted in the appropriate medium, the dilutions of compounds were performed in separate plates and then added to the cells. The starting concentration of the compounds was 100 μM, and two-fold serial dilution was performed (concentration range: 100-0.19 μM). The culture plates were incubated at 37 °C for 72 h; at the end of the incubation period, 20 μL of MTT (thiazolyl blue tetrazolium bromide, Sigma) solution (from a stock solution of 5 mg/mL) was added to each well. After incubation at 37 °C for 4 h, 100 μL of sodium dodecyl sulfate (SDS) (Sigma) solution (10% in 0.01 M HCI) were added to each well and the plates were further incubated at 37 °C overnight. Cell growth was determined by measuring the optical density (OD) at 540/630 nm with Multiscan EX ELISA reader (Thermo Labsystems, Cheshire, WA, USA). Mean IC50 values were obtained by best fitting the dose-dependent inhibition curves in GraphPadPrism5 program (GraphPad Software version 5.00 for Windows, San Diego, CA, USA) from four parallel experiments for each cell line. Results are expressed in terms of IC50, defined as the inhibitory dose that reduces the proliferation of the cells exposed to the tested compounds by 50% [14].
# [2] = tested on: HTB-26 breast adenocarcinoma cells; test: MTT antiproliferative assay, HTB-26; type: cell-based, human; details: HTB-26, mean of four parallel experiments, read-out: IC50 (µM) ± SD HTB-26
# Method: as §1, §2
# [3] = tested on: T-47D ductal carcinoma cells; test: MTT antiproliferative assay, T-47D; type: cell-based, human; details: 72 h, mean of four parallel experiments, read-out: IC50 (µM) ± SD T-47D
# Method: as §1, §2
# [4] = tested on: A2780 human ovarian cancer cell line; test: MTT antiproliferative assay, A2780; type: cell-based; details: 72 h, A2780, mean of four parallel experiments, read-out: IC50 (µM) ± SD A2780
# Method: as §1, §2
# [5] = tested on: cisplatin-resistant human ovarian cancer cell line A2780cis; test: MTT antiproliferative assay, A2780cis; type: cell-based; details: 72 h, mean of four parallel experiments, read-out: IC50 (µM) ± SD A2780cis
# Method: as §1, §2
# [6] = tested on: Breast cancer cell line MCF-7; test: MTT antiproliferative assay, MCF-7; type: cell-based, human; details: MCF-7, mean of four parallel experiments, read-out: IC50 (µM) ± SD MCF-7
# Method: as §1, §2
# [7] = tested on: KCR, drug-resistant subline of the human breast cancer MCF-7; test: MTT antiproliferative assay, KCR; type: cell-based; details: mean of four parallel experiments, read-out: IC50 (µM) ± SD KCR
# Method: as §1, §2
# [8] = tested on: MRC-5 human embryonal lung fibroblast cell line; test: MTT antiproliferative assay, MRC-5 normal cells; type: cell-based; details: for IC50: MRC-5 normal fibroblasts, mean of four parallel experiments, read-out: IC50 (µM) ± SD MRC-5
# Method: as §1, §2
# [9] = tested on: Zymoseptoria tritici; design: method as in PMID 28484977; details: cited from earlier work
# [10] = tested on: HeLa, HTB-26, T-47D, A2780, A2780cis, MCF-7, KCR and MRC-5 cell lines; test: MTT antiproliferative assay, all cell lines investigated (overall statements); type: cell-based, human; details: 72 h, all cell lines tested
# Method: Breast cancer cell line MCF-7 (ATCC®® HTB-22) and the drug-resistant subline of the human breast cancer MCF-7 (ECACC 86012803; KCR) were purchased from LGC Promochem (Teddington, UK). Both cell lines were cultured in Eagle’s Minimal Essential Medium (EMEM, containing 4.5 g/L glucose) supplemented with a non-essential amino acid mixture, a selection of vitamins, and 10% heat-inactivated fetal bovine serum. In every third passage, 0.56 µg/mL doxorubicin was added to the medium in order to maintain the ABCB1 (P-glycoprotein) expression in KCR cells. A2780 human ovarian cancer cell line (ECACC European Collection of Authentical Cell Culture, Sigma Cat. no. 93112519) and the cisplatin-resistant human ovarian cancer cell line A2780cis (ECACC European Collection of Authentical Cell Culture, Sigma Cat. no. 93112517) were purchased from Merck KGaA (Darmstadt, Germany). The human ovarian cancer cell lines were cultured in RPMI 1640 medium supplemented with 10% heat-inactivated fetal bovine serum. […]
# The antiproliferative effect of the compounds was determined on the human breast (MCF-7, KCR, T-47D, HTB-26), cervical (HeLa), and ovarian (A2780, A2780cis) cancer cells, and on MRC-5 (human embryonic lung fibroblast) cell line. […] Cell growth was determined by measuring the optical density (OD) at 540/630 nm with Multiscan EX ELISA reader (Thermo Labsystems, Cheshire, WA, USA). […]
# [11] = tested on: hepatitis C (HCV) replication; design: method as in PMID 30842319; details: cited from earlier work
IC50 ([1]; Homo sapiens) [µM],"IC50 ([2]; Homo sapiens, HTB26, 72 h) [µM]","IC50 ([3]; Homo sapiens, T47D) [µM]",IC50 ([4]; Homo sapiens) [µM],IC50 ([5]; Homo sapiens) [µM],"IC50 ([6]; Homo sapiens, MCF7, 72 h) [µM]","IC50 ([7]; Homo sapiens, MCF7, 72 h) [µM]",SMILES,"IC50 ([8]; Homo sapiens, MRC5, 72 h) [µM]",in vitro antifungal activity against Zymoseptoria tritici (in words) [9],IC50 [5] [µM],antiproliferative activity across the cell lines investigated (in words) [10],IC50 ([6]; 72 h) [µM],inhibition of hepatitis C (HCV) replication (in words) [11],IC50 [1] [µM],IC50 ([2]; 72 h) [µM],IC50 [3] [µM],IC50 [4] [µM],IC50 ([7]; 72 h) [µM],IC50 ([8]; 72 h) [µM],"selectivity: effect on MRC-5 normal lung fibroblasts compared to cancer cell lines (in words) ([8]; 72 h, MRC-5 versus cancer cell lines)"
> 100,> 100,57 ± 7.1,> 100,> 100,69.5 ± 1.7,> 100,"C=Cc1cc(O)c(C)c2c1-c1ccc(O)c(C)c1CC2 [Compound 8, 2,7-dihydroxy-1,8-dimethyl-5-vinyl-9,10-dihydrophenanthrene]",> 100,,,,,,,,,,,,
2.3 ± 0.7,57 ± 2.73,,,,,,"C=Cc1cc(O)cc2c1-c1ccc(O)c(C)c1CC2 [Compound 6, effusol]",,significant in vitro antifungal activity,,,,,,,,,,,
0.5,,25 ± 0.4,,,,,"C=Cc1c(C)c(O)cc2c1-c1ccc(O)c(C)c1CC2 [Compound 5, juncusol]",,,,,,,,,,,,,
25.2 ± 0.6,24.7 ± 2.1,6.2 ± 0.1,25.6 ± 2.4,< 20,< 20,19.6 ± 0.9,"C=Cc1cc(O)cc2c1-c1cc(-c3cc4c(c(C)c3O)CCc3cc(O)cc(C=C)c3-4)c(O)c(C)c1CC2 [Compound 11, effususin A]",20.1 ± 1.6,,16.3 ± 0.3,substantial antiproliferative activity against all cell lines investigated,,,,,,,,,
76.7 ± 1.8,75 ± 5,41.4 ± 5.8,43.5 ± 1.1,52.8 ± 2.4,45.7 ± 2.4,68.4 ± 2.5,"C=Cc1cc(C)cc2c1-c1ccc(O)c(C)c1CC2 [Compound 9, juncunol]",78.4 ± 3.7,,,,,,,,,,,,
11 ± 0.9,> 100,> 100,> 100,> 100,97 ± 0.3,> 100,"C=Cc1c(C)ccc2c1CCc1c-2ccc(O)c1C [Compound 2, maritin B]",> 100,,,,,,,,,,,,
22.5 ± 1.2,25.1 ± 0.3,9.1 ± 0.4,14.1 ± 1.3,< 20,< 20,16.2 ± 0.6,"C=Cc1cc(O)cc2c1-c1ccc(Oc3cc4c(c(C)c3O)CCc3cc(O)cc(C=C)c3-4)c(C)c1CC2 [Compound 4, maritin D]",17.1 ± 3.1,,13.3 ± 0.1,substantial antiproliferative activity against all cell lines investigated,14.2 ± 0.3,,,,,,,,
,,,,,,,C=Cc1c(C)c(O)cc2ccc3c(C)c(O)ccc3c12 [dehydrojuncusol],,,,,,novel inhibitor of hepatitis C (HCV) replication,,,,,,,
24.7 ± 0.5,85.3 ± 4.5,26.6 ± 1.1,30 ± 3.6,32.3 ± 2.3,38 ± 2,70.6 ± 3.1,"Cc1c(O)ccc2c1CCc1cc(O)cc(C=O)c1-2 [Compound 7, 2,7-dihydroxy-1-methyl-5-aldehyde-9,10-dihydrophenanthrene]",71.1 ± 1.3,,,,,,,,,,,,
,,,,,,,"N.N.[Cl][Pt][Cl] [cisplatin, reference compound]",,,7.3 ± 0.2,,0.9,,2.3 ± 0.1,20.1 ± 2.3,5.9 ± 0.1,3.6 ± 0.3,6.5 ± 0.3,0.6,
57 ± 1.3,48.7 ± 1.6,12.8 ± 0.9,21.5 ± 0.4,40.1 ± 0.4,34.7 ± 3,57.6 ± 0.7,"C=Cc1cc(O)c(CO)c2c1-c1ccc(O)c(C)c1CC2 [Compound 1, maritin A]",75.4 ± 1.8,,,,,,,,,,,,less antiproliferative effect on MRC-5 normal lung fibroblasts compared to the other cancer cell lines

SMILES,IC50 ([1]; Homo sapiens) [µM],"IC50 ([2]; Homo sapiens, HTB26, 72 h) [µM]","IC50 ([3]; Homo sapiens, T47D) [µM]",IC50 ([4]; Homo sapiens) [µM],IC50 ([5]; Homo sapiens) [µM],"IC50 ([6]; Homo sapiens, MCF7, 72 h) [µM]","IC50 ([7]; Homo sapiens, MCF7, 72 h) [µM]","IC50 ([8]; Homo sapiens, MRC5, 72 h) [µM]",in vitro antifungal activity against Zymoseptoria tritici (in words) [9],IC50 [5] [µM],antiproliferative activity across the cell lines investigated (in words) [10],IC50 ([6]; 72 h) [µM],inhibition of hepatitis C (HCV) replication (in words) [11],IC50 [1] [µM],IC50 ([2]; 72 h) [µM],IC50 [3] [µM],IC50 [4] [µM],IC50 ([7]; 72 h) [µM],IC50 ([8]; 72 h) [µM],"selectivity: effect on MRC-5 normal lung fibroblasts compared to cancer cell lines (in words) ([8]; 72 h, MRC-5 versus cancer cell lines)"
"Cc1c(O)cc2ccc3c(C)c(O)cc4c3c2c1C(O)C4 (stereo not drawn) [Compound 3, maritin C]",43.2 ± 0.7,35.9 ± 1.5,17 ± 0.6,23.7 ± 0.1,< 20,,> 100,15 ± 0.2,,18.6 ± 0.1,,,,,,,,,,
